# Measured values reported in the NIST ThermoML archive (doi:10.1021/je060354r).
# ± gives the expanded uncertainty stated by the source.
# Assay: Boiling temperature at pressure P
# Conditions: 100 kPa; Liquid; Ebulliometric method (Recirculating still)
structure (smiles),measurement,value
CC(C)O [propan-2-ol],Boiling temperature at pressure P,81.86 ± 0.22 °C
